Laboratory results: ChEMBL document CHEMBL1143663, “Brucella suis histidinol dehydrogenase: synthesis and inhibition studies of a series of substituted benzylic ketones derived from histidine” (Bioorg Med Chem, 2007)

Key:
[1] = molecular target: T1, Histidinol dehydrogenase (Brucella suis biovar 1 (strain 1330), UniProt Q8G2R2); test: Inhibition of Brucella suis histidinol dehydrogenase
T1 sequence (Q8G2R2 whole entry): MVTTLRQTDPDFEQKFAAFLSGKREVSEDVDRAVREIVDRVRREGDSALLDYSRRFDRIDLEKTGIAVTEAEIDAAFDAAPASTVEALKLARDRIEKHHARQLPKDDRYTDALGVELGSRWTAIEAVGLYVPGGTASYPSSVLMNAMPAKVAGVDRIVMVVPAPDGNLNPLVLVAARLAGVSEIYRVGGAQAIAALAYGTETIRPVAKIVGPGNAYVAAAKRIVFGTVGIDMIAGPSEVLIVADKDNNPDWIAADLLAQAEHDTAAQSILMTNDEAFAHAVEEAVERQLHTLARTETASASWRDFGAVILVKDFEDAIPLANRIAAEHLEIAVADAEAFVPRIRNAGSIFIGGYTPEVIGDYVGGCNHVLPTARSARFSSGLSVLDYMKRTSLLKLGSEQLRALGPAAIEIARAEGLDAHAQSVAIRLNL

[2] = substrate: N[C@H](CO)Cc1c[nH]cn1; test: Activity of Brucella suis histidinol dehydrogenase

For `N[C@@H](Cc1c[nH]cn1)C(=O)Cc1ccc(F)cc1F`, which IC50 [1] is on record?
The IC50 was 10 nM.

`N[C@@H](Cc1c[nH]cn1)C(=O)Cc1ccc(Cl)cc1` was tested. Which IC50 [1] did it give?
Its IC50 is 12 nM.

With `N[C@@H](Cc1c[nH]cn1)C(=O)Cc1ccc(Cl)c(Cl)c1` as the molecule, how does the IC50 [1] read?
The IC50 was 20 nM.

`N[C@@H](Cc1c[nH]cn1)C(=O)Cc1ccc(Br)cc1` was tested. Which IC50 [1] did it give?
Its IC50 is 6 nM.

How did the IC50 [1] turn out when `N[C@@H](Cc1c[nH]cn1)C(=O)Cc1ccc(-c2ccccc2)cc1` was run?
Its IC50 is 12.5 nM.

`N[C@@H](Cc1c[nH]cn1)C(=O)Cc1ccccc1` was tested. Which IC50 [1] did it give?
The IC50 was 40 nM.

`N[C@@H](Cc1c[nH]cn1)C(=O)Cc1ccc(Oc2ccccc2)cc1` was tested. Which IC50 [1] did it give?
The IC50 was 16 nM.

How did the IC50 [1] turn out when `COc1ccc(CC(=O)[C@@H](N)Cc2c[nH]cn2)cc1` was run?
Its IC50 is 150 nM.

`N[C@@H](Cc1c[nH]cn1)C(=O)Cc1ccc(OCc2ccccc2)cc1` was tested. Which IC50 [1] did it give?
The IC50 was 3 nM.

`Cc1ccc(CC(=O)[C@@H](N)Cc2c[nH]cn2)cc1` was tested. Which IC50 [1] did it give?
The IC50 was 15 nM.

`N[C@@H](Cc1c[nH]cn1)C(=O)Cc1ccc2ccccc2c1` was tested. Which IC50 [1] did it give?
The IC50 was 14.5 nM.

How did the IC50 [1] turn out when `N[C@@H](Cc1c[nH]cn1)C(=O)Cc1c(F)c(F)c(F)c(F)c1F` was run?
Its IC50 is 70 nM.

How did the IC50 [1] turn out when `N[C@@H](Cc1c[nH]cn1)C(=O)Cc1ccc2c(c1)OCO2` was run?
Its IC50 is 25 nM.

How did the IC50 [1] turn out when `N[C@@H](Cc1c[nH]cn1)C(=O)Cc1ccc(F)cc1` was run?
The IC50 was 15 nM.

How did the IC50 [1] turn out when `N[C@@H](Cc1c[nH]cn1)C(=O)Cc1cccc2ccccc12` was run?
Its IC50 is 200 nM.

B1: Histidinol dehydrogenase (Brucella suis biovar 1 (strain 1330)), Q8G2R2 (protein)
chain: T1 sequence (Q8G2R2 whole entry)
For B1, which Km [2] is on record?
Its Km is 12 µM.
